Data on 24 compounds can be found in patent EP2100894A1, “Pyridopyrimidines used as Plk1 (polo-like kinase) inhibitors” (4SC AG, priority 2008, dated 2009).

The assay deals with T1, PIk1 (Homo sapiens, UniProt P53350).
T1 construct: His tag (histidine tag) (N); made in house; host or cells: SF9 insect cells
T1 sequence (P53350 whole entry): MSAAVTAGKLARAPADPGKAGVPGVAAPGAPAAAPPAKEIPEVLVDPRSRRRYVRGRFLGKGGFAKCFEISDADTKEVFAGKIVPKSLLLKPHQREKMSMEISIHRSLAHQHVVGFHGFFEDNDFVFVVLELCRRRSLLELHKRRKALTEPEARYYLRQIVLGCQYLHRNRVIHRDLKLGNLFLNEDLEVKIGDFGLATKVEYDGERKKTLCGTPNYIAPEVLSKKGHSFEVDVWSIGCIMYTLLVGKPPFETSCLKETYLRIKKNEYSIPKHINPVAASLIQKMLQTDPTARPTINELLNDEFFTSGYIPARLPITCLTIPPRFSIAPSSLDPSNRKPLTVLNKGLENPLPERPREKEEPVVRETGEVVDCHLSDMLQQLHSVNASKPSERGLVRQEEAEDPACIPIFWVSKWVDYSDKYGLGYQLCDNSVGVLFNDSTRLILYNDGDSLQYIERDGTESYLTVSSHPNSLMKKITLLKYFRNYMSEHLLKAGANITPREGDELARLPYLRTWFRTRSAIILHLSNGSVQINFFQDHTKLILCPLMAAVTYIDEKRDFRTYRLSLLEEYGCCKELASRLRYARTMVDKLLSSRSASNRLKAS
Nature of the assay: PIk1 kinase activity inhibition assay (33P incorporation into alpha casein, flash plates). It counts as biochemical. The conditions noted are these: recombinant N-terminally histidine-tagged PIk1, alpha casein as substrate, 100 nM Li-ATP, 80 minutes at 30°C. As for the experimental part: The inhibition of PIk1 kinase activity can be measured using recombinant PIk1 protein expressed as an N-terminally histidine-tagged protein in SF9 insect cells and alpha casein as substrate. The PIk1 assay is run in 96 well plates by incubating 50 to 100 ng per well recombinant PIk1, 500 ng per well alpha casein (Sigma, # C-6780) as substrate, 10 µl of compound of invention (test compounds were dissolved as 20 mM solutions in dimethylsulfoxide (DMSO) and subsequently diluted), and 100 nM Li-ATP (including ^33P-ATP) in 100 µl of reaction buffer ([…], pH 7.5; 3 mM MgCl2; 3 mM MnCl2; 3 µM Na-Orthovanadat; 1 mM DTT; 1 µg/ml PEG 8000) for 80 minutes at 30°C. The reactions are terminated by adding 100 µl stopping buffer (2% H3PO4 for 5 minutes) and are washed 3 times with washing solution (0,9% NaCl). Determining ^33P incorporated into the protein substrate alpha casein, the detection is based on the adhesion of the phosphorylated protein to the surface of scintillator-coated flash plates (Perkin Elmer, USA; # SMP-200). Phosphorylation of alpha casein is measured by counting the radioactivity bound to the plate for 60 sec. using a plate reader (Perkin Elmer, USA; Wallac Microbeta). By this method, the IC50 value of the PIk1 inhibition is determined as described above. […]
The term IC50 denotes the point on the concentration scale where inhibition reaches its midpoint. For `CN1CCC(NC(=O)c2ccc(Nc3ncc4c(n3)c(-c3ccsc3)c(OCC3CC3)c(=O)n4C)c(Cl)c2)CC1` [Example 70, 3-chloro-4-{[7-(cyclopropylmethoxy)-5-methyl-6-oxo-8-(3-thienyl)-5,6-dihydropyrido[3,2-d]pyrimidin-2-yl]amino}-N-(1-methylpiperidin-4-yl)benzamide], the concentration for half-maximal inhibition (IC50) was below 10 nM.
For `COc1cc(C(=O)NC2CCN(C)CC2)ccc1Nc1ncc2c(n1)c(-c1cccs1)c(OC)c(=O)n2C` [Example 5, 3-methoxy-4-{[7-methoxy-5-methyl-6-oxo-8-(2-thienyl)-5,6-dihydro-pyrido[3,2-d]pyrimidin-2-yl]amino}-N-(1-methylpiperidin-4-yl)benzamide] the value was below 100 nM; for `COc1cc(C(=O)NC2CCN(C)CC2)ccc1Nc1ncc2c(n1)c(-c1ccc[nH]1)c(OCC1CC1)c(=O)n2C` [Example 73, 4-{[7-(cyclopropylmethoxy)-5-methyl-6-oxo-8-(1H-pyrrol-2-yl)-5,6-dihydro-pyrido[3,2-d]pyrimidin-2-yl]amino}-3-methoxy-N-(1-methylpiperidin-4-yl)benzamide], below 10 nM.
For `COc1cc(C(=O)NC2CCN(C)CC2)ccc1Nc1ncc2c(n1)c(-c1cccs1)c(OCC1CC1)c(=O)n2C` [Example 53, 4-{[7-(cyclopropylmethoxy)-5-methyl-6-oxo-8-(2-thienyl)-5,6-dihydro-pyrido[3,2-d]pyrimidin-2-yl]amino}-3-methoxy-N-(1-methylpiperidin-4-yl)benzamide] the value was below 10 nM.
For `COc1cc(C(=O)NC2CCN(C)CC2)ccc1Nc1ncc2c(n1)c(-c1ccccc1C)c(OCC1CC1)c(=O)n2C` [Example 71, 4-{[7-(cyclopropylmethoxy)-5-methyl-8-(2-methylphenyl)-6-oxo-5,6-dihydropyrido[3,2-d]pyrimidin-2-yl]amino}-3-methoxy-N-(1-methylpiperidin-4-yl)benzamide] the value was below 100 nM.
On to `COc1cc(C(=O)NC2CCN(C)CC2)ccc1Nc1ncc2c(n1)c(-c1cc(C)cs1)c(OCC1CC1)c(=O)n2C` [Example 55, 4-{[7-(cyclopropylmethoxy)-5-methyl-8-(4-methyl-2-thienyl)-6-oxo-5,6-dihydropyrido[3,2-d]pyrimidin-2-yl]amino}-3-methoxy-N-(1-methylpiperidin-4-yl)benzamide], for which the IC50 is below 10 nM.
For `COc1cc(C(=O)NC2CCN(C)CC2)ccc1Nc1ncc2c(cc(OCc3ccccc3)c(=O)n2C)n1` [Example 1, 4-{[7-(benzyloxy)-5-methyl-6-oxo-5,6-dihydropyrido[3,2-d]pyrimidin-2-yl]amino}-3-methoxy-N-(1-methylpiperidin-4-yl)benzamide] the value was below 1000 nM; for `C=C(C)c1c(OC)c(=O)n(C)c2cnc(Nc3ccc(C(=O)NC4CCN(C)CC4)cc3OC)nc12` [Example 22, 4-[(8-isopropenyl-7-methoxy-5-methyl-6-oxo-5,6-dihydropyrido[3,2-d]pyrimidin-2-yl)amino]-3-methoxy-N-(1-methylpiperidin-4-yl)benzamide], below 100 nM.
Then `COc1cc(C(=O)NC2CCN(C)CC2)ccc1Nc1ncc2c(cc(OCC3CCCC3)c(=O)n2C)n1` [Example 8, 4-{[7-(cyclopentylmethoxy)-5-methyl-6-oxo-5,6-dihydropyrido[3,2-d]pyrimidin-2-yl]amino}-3-methoxy-N-(1-methylpiperidin-4-yl)benzamide], with below 100 nM; and `COc1cc(C(=O)NC2CCN(C)CC2)ccc1Nc1ncc2c(cc(OCC3CCCO3)c(=O)n2C)n1` (stereo not drawn) [Example 13, 3-methoxy-4-{[5-methyl-6-oxo-7-(tetrahydrofuran-2-ylmethoxy)-5,6-dihydropyrido[3,2-d]pyrimidin-2-yl]amino}-N-(1-methylpiperidin-4-yl)benzamide], with below 1000 nM.
For `C/C=C/c1c(OCC2CC2)c(=O)n(C)c2cnc(Nc3ccc(C(=O)NC4CCN(C)CC4)cc3Cl)nc12` [Example 67, 3-chloro-4-({7-(cyclopropylmethoxy)-5-methyl-6-oxo-8-[(1E)-prop-1-en-1-yl]-5,6-dihydropyrido[3,2-d]pyrimidin-2-yl}amino)-N-(1-methylpiperidin-4-yl)benzamide] the value was below 10 nM; for `C/C=C/c1c(OC(C)C2CC2)c(=O)n(C)c2cnc(Nc3ccc(C(=O)NC4CCN(C)CC4)cc3OC)nc12` (stereo not drawn) [Example 45, 4-({7-(1-cyclopropylethoxy)-5-methyl-6-oxo-8-[(1E)-prop-1-en-1-yl]-5,6-dihydropyrido[3,2-d]pyrimidin-2-yl}amino)-3-methoxy-N-(1-methylpiperidin-4-yl)benzamide], below 100 nM.
With `COc1cc(C(=O)NC2CCN(C)CC2)ccc1Nc1ncc2c(n1)c(C1=CCCC1)c(OC)c(=O)n2C` [Example 6, 4-[(8-cyclopent-1-en-1-yl-7-methoxy-5-methyl-6-oxo-5,6-dihydropyrido[3,2-d]pyrimidin-2-yl)amino]-3-methoxy-N-(1-methylpiperidin-4-yl)benzamide], the IC50 was below 100 nM.
For the compound `COc1cc(C(=O)NC2CCN(C)CC2)ccc1Nc1ncc2c(cc(OCC3CC3)c(=O)n2C)n1` [Example 7, 4-{[7-(cyclopropylmethoxy)-5-methyl-6-oxo-5,6-dihydropyrido[3,2-d]pyrimidin-2-yl]amino}-3-methoxy-N-(1-methylpiperidin-4-yl)benzamide], the IC50 was below 100 nM.
Then `COc1cc(C(=O)NC2CCN(C)CC2)ccc1Nc1ncc2c(n1)c(-c1cc[nH]c1)c(OCC1CC1)c(=O)n2C` [Example 76, 4-{[7-(cyclopropylmethoxy)-5-methyl-6-oxo-8-(1H-pyrrol-3-yl)-5,6-dihydro-pyrido[3,2-d]pyrimidin-2-yl]amino}-3-methoxy-N-(1-methylpiperidin-4-yl)benzamide], with below 10 nM; and `COc1cc(C(=O)NC2CCN(C)CC2)ccc1Nc1ncc2c(n1)c(C1=CCCC1)c(OCC1CC1)c(=O)n2C` [Example 57, 4-{[8-cyclopent-1-en-1-yl-7-(cyclopropylmethoxy)-5-methyl-6-oxo-5,6-dihydropyrido[3,2-d]pyrimidin-2-yl]amino}-3-methoxy-N-(1-methylpiperidin-4-yl)benzamide], with below 10 nM.
For `C/C=C/c1c(OC)c(=O)n(C)c2cnc(Nc3ccc(C(=O)NCc4cncn4C)cc3OC)nc12` [Example 20, 3-methoxy-4-({7-methoxy-5-methyl-6-oxo-8-[(1E)-prop-1-en-1-yl]-5,6-dihydropyrido[3,2-d]pyrimidin-2-yl}amino)-N-[(1-methyl-1H-imidazol-5-yl)methyl]benzamide] the value was below 100 nM; for `COc1cc(C(=O)NC2CCN(C)CC2)ccc1Nc1ncc2c(n1)c(C1CC1)c(OCC1CC1)c(=O)n2C` [Example 38, 4-{[8-cyclopropyl-7-(cyclopropylmethoxy)-5-methyl-6-oxo-5,6-dihydro-pyrido[3,2-d]pyrimidin-2-yl]amino}-3-methoxy-N-(1-methylpiperidin-4-yl)benzamide], below 10 nM.
Then `COc1cc(C(=O)NC2CCN(C)CC2)ccc1Nc1ncc2c(cc(OCC3CCOC3)c(=O)n2C)n1` (stereo not drawn) [Example 12, 3-methoxy-4-{[5-methyl-6-oxo-7-(tetrahydrofuran-3-ylmethoxy)-5,6-dihydropyrido[3,2-d]pyrimidin-2-yl]amino}-N-(1-methylpiperidin-4-yl)benzamide], with below 1000 nM.
As to `CCC(C)Oc1c(-c2ccsc2)c2nc(Nc3ccc(C(=O)NC4CCN(C)CC4)cc3OC)ncc2n(C)c1=O` (stereo not drawn) [Example 36, 4-{[7-sec-butoxy-5-methyl-6-oxo-8-(3-thienyl)-5,6-dihydropyrido[3,2-d]pyrimidin-2-yl]amino}-3-methoxy-N-(1-methylpiperidin-4-yl)benzamide], the IC50 was below 100 nM.
For `CCOc1c(C2CC2)c2nc(Nc3ccc(C(=O)NC4CCN(C)CC4)cc3OC)ncc2n(C)c1=O` [Example 37, 4-[(8-cyclopropyl-7-ethoxy-5-methyl-6-oxo-5,6-dihydropyrido[3,2-d]pyrimidin-2-yl)amino]-3-methoxy-N-(1-methylpiperidin-4-yl)benzamide] the value was below 100 nM; for `C/C=C/c1c(OC)c(=O)n(C)c2cnc(Nc3ccc(C(=O)NC4CCN(C)CC4)cc3OC)nc12` [Example 2, 3-methoxy-4-({7-methoxy-5-methyl-6-oxo-8-[(E)-prop-1-en-1-yl]-5,6-dihydropyrido[3,2-d]pyrimidin-2-yl}amino)-N-(1-methylpiperidin-4-yl)benzamide], below 100 nM; for `C/C=C/c1c(OCC(C)C)c(=O)n(C)c2cnc(Nc3ccc(C(=O)NC4CCN(C)CC4)cc3OC)nc12` [Example 41, 4-({7-isobutoxy-5-methyl-6-oxo-8-[(1E)-prop-1-en-1-yl]-5,6-dihydro-pyrido[3,2-d]pyrimidin-2-yl}amino)-3-methoxy-N-(1-methylpiperidin-4-yl)benzamide], below 10 nM.
Then `COc1cc(C(=O)NC2CCN(C)CC2)ccc1Nc1ncc2c(n1)c(-c1ccoc1)c(OC)c(=O)n2C` [Example 11, 4-{[8-(3-furyl)-7-methoxy-5-methyl-6-oxo-5,6-dihydropyrido[3,2-d]pyrimidin-2-yl]amino}-3-methoxy-N-(1-methylpiperidin-4-yl)benzamide], with below 100 nM.
